Test results as given in patent publication US11786492B2, “Therapeutic agent for phosphodiesterase inhibition and its related disorders” (Novalead Pharma Inc, priority 2017, dated 2023).
Read-outs that look alike come from different tables or passages of the source.

How the values were obtained:
Human IL-22 = assay: IL-22 release from stimulated PBMCs, ELISA; type: cell-based; details: PMA+Ionomycin, 18 hrs
Description: (§1) Fresh human blood from healthy volunteer was collected in anticoagulant (5 mM) ethylene diamine tetra acetic acid (EDTA) containing tubes. The growth medium used was RPMI-1640 medium (with 3% FBS) and incubated at 37° C. for 60 mins in a 5% CO2 incubator with vehicle used as 1% DMSO. The cell viability was checked at various time points using Alamar blue and fluorescence readings were taken at excitation of 544 nm and emission of 590 nm.
(§2) PBMCs were stimulated with different stimulators as follows: • a. Cells were exposed to stimulator LPS at 100 ng/mL for 18 hrs to stimulate TNF-α, IL-6, IFN-γ, IL10, IL-1β • b. Cells were exposed to stimulator IFN-γ+LPS at 100 ng/mL+1 μg/mL for 18 hrs to stimulate IL-12 • c. Cells were exposed to stimulator PMA+Ionomycin at 50 ng/mL+1 μg/mL for 18 hrs to stimulate IL-23, IL-22, IL-17A, IL-17F
(§3) After 18 hrs supernatants were collected and centrifuged to remove any cell debris and aliquots were used for ELISA.

Human IL-6 = assay: IL-6 release from stimulated PBMCs, ELISA; type: cell-based; details: LPS 100 ng/mL, 18 hrs
Description: as §1, §2, §3

TNF-α = TNF-α release from stimulated HaCaT cells, ELISA; type: cell-based, human; details: IFN-γ 50 ng/mL, 48 hrs
Description: (§4) HaCaT cells were maintained in T-75 cm2 flask in Dulbecco's modified Eagle medium supplemented with FBS (10%), L-glutamine (2 mM), penicillin (100 ug/ml), streptomycin (100 ug/ml) at 37° C. in 5% CO2 incubator. Cell growth was maintained to 70-80% confluence for seeding and vehicle used was 1% DMSO. The cell viability was checked at various time points using Alamar blue and fluorescence readings were taken at excitation of 544 nm and emission of 590 nm.
(§5) HaCaT cells were stimulated with different stimulators as follows: • a. Cells were exposed to stimulator LPS at 1 μg/mL for 48 hrs to stimulate IL-1β • b. Cells were exposed to stimulator IFN-γ at 50 ng/mL for 48 hrs to stimulate TNF-α, IL-6
(§6) After 48 hrs supernatants were collected and centrifuged to remove any cell debris and aliquots were used for ELISA.

HaCaT cells = assay: Keratinocyte (HaCaT) proliferation, MTT assay; type: cell-based, human; details: for IC50: Homo sapiens, HaCaT, read-out: IC50 of cell proliferation
Description: An experiment to check keratinocyte proliferation inhibitory activity of selected compounds of Formula-I was performed to establish its application in skin disorders related to keratinocyte hyper-proliferation. HaCaT cells, a human immortalized cell line derived from keratinocytes, representing hyper-proliferating keratinocytes was investigated for anti-proliferative potential of the selected compounds by MTT assay.

Human TNF-α = assay: TNF-α release from stimulated PBMCs, ELISA; type: cell-based; details: LPS 100 ng/mL, 18 hrs
Description: as §1, §2, §3

Human IL-17A = assay: IL-17A release from stimulated PBMCs, ELISA; type: cell-based; details: PMA+Ionomycin, 18 hrs
Description: as §1, §2, §3

Human IL-17F = assay: IL-17F release from stimulated PBMCs, ELISA; type: cell-based; details: PMA+Ionomycin, 18 hrs
Description: as §1, §2, §3

Human IL-1β = assay: IL-1β release from stimulated PBMCs, ELISA; type: cell-based; details: LPS 100 ng/mL, 18 hrs
Description: as §1, §2, §3

PDE1A = PDE1A (Homo sapiens, UniProt P54750); assay: Fluorescence polarization assay PDE1A; type: biochemical; details: substrate cGMP, Ca-CaM
Description: (§7) An experiment to check inhibition of various subtypes of the target Phosphodiesterase (PDE) enzyme in in-vitro assay was performed. […] PDE1A, PDE2A, PDE4A, PDE4B, PDE4C, PDE4D, PDE5A, PDE7A, PDE9A, PDE10A.

IL-6 = IL-6 release from stimulated HaCaT cells, ELISA; type: cell-based, human; details: IFN-γ 50 ng/mL, 48 hrs
Description: as §4, §5, §6

Human IL-10 = assay: IL-10 release from stimulated PBMCs, ELISA; type: cell-based; details: LPS 100 ng/mL, 18 hrs
Description: as §1, §2, §3

Human IL-12 = assay: IL-12 release from stimulated PBMCs, ELISA; type: cell-based; details: IFN-γ+LPS, 18 hrs
Description: as §1, §2, §3

PDE2A = PDE2A (Homo sapiens, UniProt O00408); assay: Fluorescence polarization assay PDE2A; type: biochemical; details: substrate cGMP
Description: as §7

PDE4B = PDE4B (Homo sapiens, UniProt Q07343); assay: Fluorescence polarization assay PDE4B; type: biochemical; details: substrate cAMP
Description: as §7

Human IFN-γ = assay: IFN-γ release from stimulated PBMCs, ELISA; type: cell-based; details: LPS 100 ng/mL, 18 hrs
Description: as §1, §2, §3

Chain of PDE4B (Q07343 whole entry, species assumed): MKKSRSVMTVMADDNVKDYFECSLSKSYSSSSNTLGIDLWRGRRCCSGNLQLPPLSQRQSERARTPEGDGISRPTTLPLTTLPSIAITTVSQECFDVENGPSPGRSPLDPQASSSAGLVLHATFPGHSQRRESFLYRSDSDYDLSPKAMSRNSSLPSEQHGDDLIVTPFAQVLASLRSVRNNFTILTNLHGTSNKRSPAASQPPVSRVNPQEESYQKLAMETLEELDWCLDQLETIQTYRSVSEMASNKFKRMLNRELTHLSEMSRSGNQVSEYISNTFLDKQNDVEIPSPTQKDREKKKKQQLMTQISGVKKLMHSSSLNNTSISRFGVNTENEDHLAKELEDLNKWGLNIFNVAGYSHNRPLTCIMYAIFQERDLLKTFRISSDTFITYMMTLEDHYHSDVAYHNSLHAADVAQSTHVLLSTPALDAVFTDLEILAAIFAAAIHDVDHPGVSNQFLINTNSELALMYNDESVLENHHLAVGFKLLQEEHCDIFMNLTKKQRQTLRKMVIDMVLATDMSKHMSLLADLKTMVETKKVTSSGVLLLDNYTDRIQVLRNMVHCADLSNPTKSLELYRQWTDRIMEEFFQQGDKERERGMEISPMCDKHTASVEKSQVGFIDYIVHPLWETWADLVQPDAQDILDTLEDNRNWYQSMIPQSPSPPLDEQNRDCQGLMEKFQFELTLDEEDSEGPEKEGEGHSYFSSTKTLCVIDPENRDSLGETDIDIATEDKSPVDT
Chain of PDE2A (O00408 whole entry, species assumed): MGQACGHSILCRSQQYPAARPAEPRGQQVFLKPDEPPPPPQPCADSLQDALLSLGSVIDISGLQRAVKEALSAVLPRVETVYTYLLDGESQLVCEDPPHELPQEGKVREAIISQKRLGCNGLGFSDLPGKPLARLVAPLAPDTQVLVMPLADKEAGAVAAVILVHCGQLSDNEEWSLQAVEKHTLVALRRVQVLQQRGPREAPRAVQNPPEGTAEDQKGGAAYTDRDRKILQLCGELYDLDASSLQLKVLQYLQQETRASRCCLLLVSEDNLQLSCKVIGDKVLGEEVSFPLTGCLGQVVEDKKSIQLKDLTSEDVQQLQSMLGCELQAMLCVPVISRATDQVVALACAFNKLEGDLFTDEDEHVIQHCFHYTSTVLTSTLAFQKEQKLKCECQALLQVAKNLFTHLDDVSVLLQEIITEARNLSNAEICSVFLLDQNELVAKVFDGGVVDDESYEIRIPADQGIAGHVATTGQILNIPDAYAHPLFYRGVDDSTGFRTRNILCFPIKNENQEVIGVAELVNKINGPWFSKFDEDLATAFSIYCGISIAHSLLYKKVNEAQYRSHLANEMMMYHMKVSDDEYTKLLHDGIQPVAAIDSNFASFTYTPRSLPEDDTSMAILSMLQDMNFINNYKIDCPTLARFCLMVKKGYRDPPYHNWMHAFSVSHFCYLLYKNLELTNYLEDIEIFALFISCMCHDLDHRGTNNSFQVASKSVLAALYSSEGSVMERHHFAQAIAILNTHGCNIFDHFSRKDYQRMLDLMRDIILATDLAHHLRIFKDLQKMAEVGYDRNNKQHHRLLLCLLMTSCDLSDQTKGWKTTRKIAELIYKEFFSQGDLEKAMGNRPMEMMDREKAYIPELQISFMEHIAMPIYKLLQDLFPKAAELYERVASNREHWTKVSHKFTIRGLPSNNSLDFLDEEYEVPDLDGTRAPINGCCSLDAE
Chain of PDE1A (P54750 whole entry, species assumed): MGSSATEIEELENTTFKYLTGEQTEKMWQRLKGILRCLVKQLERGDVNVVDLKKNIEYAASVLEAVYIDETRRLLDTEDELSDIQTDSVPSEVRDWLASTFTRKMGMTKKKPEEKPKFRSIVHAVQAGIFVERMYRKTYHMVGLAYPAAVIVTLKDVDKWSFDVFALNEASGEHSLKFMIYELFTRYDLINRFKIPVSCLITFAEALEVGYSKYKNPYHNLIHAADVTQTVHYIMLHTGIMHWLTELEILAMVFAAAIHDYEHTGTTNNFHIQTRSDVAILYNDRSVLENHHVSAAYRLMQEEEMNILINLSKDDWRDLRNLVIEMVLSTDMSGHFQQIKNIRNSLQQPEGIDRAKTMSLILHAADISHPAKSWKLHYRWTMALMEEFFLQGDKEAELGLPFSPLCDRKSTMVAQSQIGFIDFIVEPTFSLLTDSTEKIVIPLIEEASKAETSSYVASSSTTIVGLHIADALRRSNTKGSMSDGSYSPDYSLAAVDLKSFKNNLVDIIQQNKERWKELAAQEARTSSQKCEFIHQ

**Q.** Which results are given for `O=C(Nc1ncc([N+](=O)[O-])s1)c1ccccc1O` [Tizoxanide]?
**A.** Human IL-22 concentration (Human IL-22; 1 μM): 7858 pg/mL; Human IL-22 concentration (Human IL-22; 10 μM): 1189 pg/mL; Human IL-22 concentration (Human IL-22; 25 μM): 280 pg/mL; Human IL-22 concentration (Human IL-22; 50 μM): 0 pg/mL; Human IL-6 concentration (Human IL-6; 1 μM): 6122 pg/mL; Human IL-6 concentration (Human IL-6; 10 μM): 5225 pg/mL; Human IL-6 concentration (Human IL-6; 25 μM): 3428 pg/mL; Human IL-6 concentration (Human IL-6; 50 μM): 2086 pg/mL; TNF-α Conc. (TNF-α; 0.1 μM): 2.9 ± 0.2 pg/mL; TNF-α Conc. (TNF-α; 0.5 μM): 3.2 ± 0.1 pg/mL; TNF-α Conc. (TNF-α; 1 μM): 2.3 ± 0.5 pg/mL; Cell proliferation (% of Control) (HaCaT cells; 0.01 μM, 24 h): 98.2 % of Control; Cell proliferation (% of Control) (HaCaT cells; 0.01 μM, 48 h): 109.5 % of Control; Cell proliferation (% of Control) (HaCaT cells; 0.01 μM, 72 h): 87.4 % of Control; Cell proliferation (% of Control) (HaCaT cells; 0.1 μM, 24 h): 93.9 % of Control; Cell proliferation (% of Control) (HaCaT cells; 0.1 μM, 48 h): 120.1 % of Control; Cell proliferation (% of Control) (HaCaT cells; 0.1 μM, 72 h): 82.7 % of Control; Cell proliferation (% of Control) (HaCaT cells; 0.5 μM, 24 h): 93.2 % of Control; Cell proliferation (% of Control) (HaCaT cells; 0.5 μM, 48 h): 108.9 % of Control; Cell proliferation (% of Control) (HaCaT cells; 0.5 μM, 72 h): 87.7 % of Control; Cell proliferation (% of Control) (HaCaT cells; 1 μM, 24 h): 99.7 % of Control; Cell proliferation (% of Control) (HaCaT cells; 1 μM, 48 h): 112.4 % of Control; Cell proliferation (% of Control) (HaCaT cells; 1 μM, 72 h): 81 % of Control; Cell proliferation (% of Control) (HaCaT cells; 5 μM, 24 h): 101.6 % of Control; Cell proliferation (% of Control) (HaCaT cells; 5 μM, 48 h): 89.3 % of Control; Cell proliferation (% of Control) (HaCaT cells; 5 μM, 72 h): 77.9 % of Control; Cell proliferation (% of Control) (HaCaT cells; 10 μM, 24 h): 94.9 % of Control; Cell proliferation (% of Control) (HaCaT cells; 10 μM, 48 h): 74.1 % of Control; Cell proliferation (% of Control) (HaCaT cells; 10 μM, 72 h): 64.3 % of Control; Cell proliferation (% of Control) (HaCaT cells; 50 μM, 24 h): 67.3 % of Control; Cell proliferation (% of Control) (HaCaT cells; 50 μM, 48 h): 59.9 % of Control; Cell proliferation (% of Control) (HaCaT cells; 50 μM, 72 h): 38 % of Control; Cell proliferation (% of Control) (HaCaT cells; 100 μM, 24 h): 53.5 % of Control; Cell proliferation (% of Control) (HaCaT cells; 100 μM, 48 h): 38.6 % of Control; Cell proliferation (% of Control) (HaCaT cells; 100 μM, 72 h): 22.8 % of Control; IC50 (HaCaT cells; 48 h): 59.9 µM; IC50 (HaCaT cells; 72 h): 22.4 µM; Human TNF-α concentration (Human TNF-α; 1 μM): 5351 pg/mL; Human TNF-α concentration (Human TNF-α; 10 μM): 3244 pg/mL; Human TNF-α concentration (Human TNF-α; 25 μM): 3489 pg/mL; Human TNF-α concentration (Human TNF-α; 50 μM): 2440 pg/mL; Human IL-17A concentration (Human IL-17A; 1 μM): 39 pg/mL; Human IL-17A concentration (Human IL-17A; 10 μM): 0 pg/mL; Human IL-17A concentration (Human IL-17A; 25 μM): 0 pg/mL; Human IL-17A concentration (Human IL-17A; 50 μM): 0 pg/mL; Human IL-17F concentration (Human IL-17F; 1 μM): 151 pg/mL; Human IL-17F concentration (Human IL-17F; 10 μM): 0 pg/mL; Human IL-17F concentration (Human IL-17F; 25 μM): 0 pg/mL; Human IL-17F concentration (Human IL-17F; 50 μM): 0 pg/mL; Human IL-1β concentration (Human IL-1β; 1 μM): 4577 pg/mL; Human IL-1β concentration (Human IL-1β; 10 μM): 4118 pg/mL; Human IL-1β concentration (Human IL-1β; 25 μM): 4168 pg/mL; Human IL-1β concentration (Human IL-1β; 50 μM): 2522 pg/mL; IC50 (PDE1A): 96.1 µM; IL-6 Conc. (IL-6; 0.1 μM): 87 ± 2 pg/mL; IL-6 Conc. (IL-6; 0.5 μM): 80 ± 2 pg/mL; IL-6 Conc. (IL-6; 1 μM): 78 ± 6 pg/mL; Human IL-10 concentration (Human IL-10; 1 μM): 1591 pg/mL; Human IL-10 concentration (Human IL-10; 10 μM): 493 pg/mL; Human IL-10 concentration (Human IL-10; 25 μM): 76 pg/mL; Human IL-10 concentration (Human IL-10; 50 μM): 42 pg/mL; Human IL-12 concentration (Human IL-12; 1 μM): 4715 pg/mL; Human IL-12 concentration (Human IL-12; 10 μM): 1401 pg/mL; Human IL-12 concentration (Human IL-12; 25 μM): 381 pg/mL; Human IL-12 concentration (Human IL-12; 50 μM): 101 pg/mL; IC50 (PDE2A): 12 µM; IC50 (PDE4B): > 500 µM; Human IFN-γ concentration (Human IFN-γ; 1 μM): 204 pg/mL; Human IFN-γ concentration (Human IFN-γ; 10 μM): 111 pg/mL; Human IFN-γ concentration (Human IFN-γ; 25 μM): 139 pg/mL; Human IFN-γ concentration (Human IFN-γ; 50 μM): 191 pg/mL
